Experiment [1] concerns E2R2 cells. The experiment is described as follows: Apoptosis induction by Ec, AnnexinV/PI flow cytometry, E2R2 cells. The format is cell-based, Human. Particulars: 15 μM Ec for 2 hours, overnight recovery. On the procedure:
FIG. 2 ABC50 knockdown partially reverses resistance to Ec in E2R2 cells. A: Western blot of ABC50 expression in E2R2 cells infected with vector control or ABC50 shRNA. B: Apoptosis induction by Ec in E2R2 vector control and ABC50 knockdown cells. Cells were exposed to 15 μM Ec for 2 hours followed by overnight recovery as described in Materials and Methods. The following day, cells were stained with PI and AnnexinV and analysed by flow cytometry. AnnexinV positive, PI negative cells represent early apoptotic cells, AnnexinV positive, PI positive cells represent late apoptotic or necrotic cells.
(§1) To measure apoptosis induced by Econazole (Ec; Sigma-Aldrich, St. Louis, Mo.), cells were treated with Ec in RPMI containing 1% FBS for 2 hours at 37° C. then further incubated overnight in RPMI containing 10% FBS. Apoptosis induced by thapsigargin (Tg; Sigma-Aldrich) or Tunicamycin (Tu; Sigma-Aldrich) was determined after overnight incubation in RPMI containing 1% FBS. The cells were washed with PBS and stained with Annexin V-cy5 Apoptosis Detection kit (Biovision. Inc., Mountain View, Calif.)/PI and analysed by flow cytometry.
For orientation: A flow cytometer gives signals particle by particle.

The subject of experiment [2] is HL60 cells. The experiment is described as follows: Apoptosis induction by ER stress agents and etoposide, AnnexinV/PI flow cytometry, HL60 cells. The format is cell-based, Human. Particulars: 15 μM Ec 2 hours, 200 nM Tg, 1 μM Tu or 5 μM etoposide overnight; for sensitivity to apoptosis induction, ABC50 knockdown vs vector control: HL60 ABC50 knockdown cells; for sensitivity to apoptosis induction, ABC50 overexpressing vs control cells: HL60 ABC50 overexpressing cells. How it is done:
FIG. 3 ABC50 knockdown alters growth rate and sensitivity to Ec in HL60 cells. A: Western blot of ABC50 expression in HL60 cells infected with vector control or ABC50 shRNA. B: Cell growth kinetics of control and ABC50 knocked-down cells. Values are means and standard errors determined from triplicate cultures and is representative measurement from a series of three independent experiments. ***indicates p<0.001 at 48 hours for ABC50 KD cells vs control. C: Apoptosis induction by serum withdrawal (SW), Ec, Tg, Tu and etoposide (Eto) in HL60 vector control and ABC50 knockdown cells. Cells were exposed to 15 μM Ec for 2 hours followed by overnight recovery as described in Materials and Methods. Cells were incubated overnight in the absence of serum, 200 nM Tg, 1 μM Tu or 5 μM etoposide. The following day, cells were stained with PI and AnnexinV and analysed by flow cytometry. AnnexinV positive, PI negative cells represent early apoptotic cells, AnnexinV positive, PI positive cells represent late apoptotic or necrotic cells. Plotted is early and late apoptotic cells combined. *p<0.05, **p<0.01 comparing knockdown or overexpressing cells to their vector control.
FIG. 4 Effect of ABC50 overexpression on growth rate and sensitivity to ER stress agents in HL60 cells. A: Western blot of ABC50 expression in HL60 cells infected with vector control or ABC50 OE vector. B: Cell growth kinetics of control and ABC50 overexpressing cells. Values are means and standard errors determined from triplicate cultures and is representative measurement from a series of three independent experiments. C: Apoptosis induction by serum withdrawal (SW), Ec, Tg, Tu and etoposide (Eto) in HL60 vector control and ABC50 overexpressing cells. Cells were exposed to 15 μM Ec for 2 hours followed by overnight recovery as described in Materials and Methods. Cells were incubated overnight in the absence of serum, 200 nM Tg, 1 μM Tu or 5 μM etoposide. The following day, cells were stained with PI and AnnexinV and analysed by flow cytometry. AnnexinV positive, PI negative cells represent early apoptotic cells, AnnexinV positive, PI positive cells represent late apoptotic or necrotic cells. Plotted is early and late apoptotic cells combined. *p<0.05, **p<0.01 comparing knockdown or overexpressing cells to their vector control.
as §1

The test system of experiment [3] is HL60 cells. The experiment is described as follows: Global protein synthesis, 3H-leucine incorporation. The format is cell-based, Human. Particulars: 15 μM Ec for 15 minutes. How it is done:
FIG. 8 Effect of ABC50 knockdown or overexpression on global protein synthesis. Cells were incubated with 15 μM Ec for 15 minutes, pulse-labelled with 3H-leucine and incorporation was measured as described in Materials and Methods. A: Vector control vs ABC50 knock-down. B: Vector control vs ABC50 overexpression. The values are averages and standard errors from 4 replicates. This experiment was repeated six times. *p<0.05, **p<0.01 comparing knockdown or overexpressing cells to their vector control.
Cells (2×10^5/sample) were collected, washed with PBS and then re-suspended in RPMI supplemented with fatty acid-free bovine serum albumin (BSA; 0.05%; Sigma). Cells were treated with Ec (0, 15 μM) for 15 min. After centrifugation (2,500 rpm; 5 min), cells were pulse-labeled with [^3H]-leucine (50 μCi/ml) for 10 min (37° C.; 5% CO2) in leucine-free RPMI. After two washes in RPMI, pellets were lysed with Triton X-100 (0.5% in PBS) followed by trichloroacetic acid (TCA, 10% w/v; 4° C.). Samples were washed in TCA (5% w/v), and the protein pellets were re-suspended in microscintillant (Packard, Conn., USA) and measured using a microplate scintillation counter (Packard).

For experiment [4], the system named is ser51-phosphorylated eIF2α. The experiment in a line: ER stress response, Western blot of ser51-phosphorylated eIF2α. The format is cell-based, Human. Particulars: Ec 15 μM, Tg 200 nM, 60 minutes; for induction of increased levels of phosphorylated eIF2α: ABC50 knockdown cells vs vector control; for levels of phosphorylated eIF2α: ABC50 overexpressing cells, Tu 200 ng/ml. How it is done:
FIG. 6. ABC50 knockdown or overexpression alters the ER stress response. Vector controls, knockdown (A, B) or overexpressing cells (C, D) were exposed to Ec (15 μM), Tg (200 nM) or Tu (200 ng/ml) for 60 minutes. The cells were collected, lysed in RIPA buffer, resolved by SDS-PAGE and analysed with anti-sera specific for A, C: ser51-phosphorylated eIF2α or total eIF2α, B, D: BiP or actin. Numbers represent relative expression levels compared to control normalized to either total eIF2α or actin. The blots are representative of two independent experiments.
Cells were washed with PBS and lysed with Triple lysis buffer (50 mM Tris pH7.0, 150 mM NaCl, 0.1% SDS, 1% NP-40 and 0.5% DOC). Proteinase inhibitor (Boehringer) was added to 10 ml lysis buffer before use. Protein concentration was determined with the Pierce BCA kit. 20 μg of total protein was loaded onto 10% SDS-PAGE, transferred onto filters and blotted with rabbit anti-human ABC50 polyclonal serum (kind gift from Dr. C. Proud, Vancouver, Canada). eIF2α and its phosphorylated form (Ser51) were detected with rabbit polyclonal antibodies from Cell Signalling (Danvers, Mass.). Mouse anti-BiP/GRP78 antibodies were obtained from BD Biosciences (San Jose, Calif.) Anti-actin (pan Ab-5, Clone ACTN05) (Labvision/Neomarker, Fremont, Calif.) was used as a loading control.
A general note: A western blot detects proteins with antibodies after separation by electrophoresis.

Experiment [5] concerns sp2 cells. The experiment in a line: Cell viability of Ec-selected sp2 cells, Trypan Blue staining. The format is cell-based, mouse. The conditions noted are these: exposure overnight. On the procedure:
FIG. 10. Generation of Ec-resistant sp2 cells. Sp2 cells were exposed to increasing concentrations of Econazole. Cells remaining after treatment were expanded and subjected to additional rounds of selection. A: cell viability for unselected (U) and selected (S) cells. Exposure to Econazole was for 2 hours in low serum medium, followed by a recovery period of 24 hours in full growth medium. Cells were exposed to Thapsigargin (Tg) and Tunicamycin (Tu) overnight. Cell viability was determined by Trypan Blue staining of 200 cells. B: Western blot of ABC50 expression in sp2 cells selected for resistance to Ec showing increased expression. C: Quantitation of expression normalized to actin. **p<0.01, ***p<0.001 comparing selected vs unselected.

Consider `Clc1ccc(COC(Cn2ccnc2)c2ccc(Cl)cc2Cl)cc1` (centres unmarked) [Ec, 1-[2-[(4-chlorophenyl)methoxy]-2-(2,4-dichlorophenyl)ethyl]-1H-imidazole], for which the “combined early and late apoptosis” value in experiment [1] (E2R2 ABC50 knockdown cells) came out at 21.4%. For the same compound, in experiment [1] (E2R2 vector control cells), the “combined early and late apoptosis” value amounted to 7.6%. In experiment [2], the “sensitivity to apoptosis induction, ABC50 knockdown vs vector control” value (shortened to “sensitivity … vs vector control”) is “significantly increased the sensitivity” and the “sensitivity to apoptosis induction, ABC50 overexpressing vs control cells” value (from here on “sensitivity … vs control cells”) was “decreased sensitivity”. In addition, the “protein synthesis rates after exposure” value in experiment [3] (ABC50 knock down cells) is listed as “reduced protein synthesis rates even further”. Besides, the “protein synthesis level after exposure, compared to control cells” value in experiment [3] (ABC50 overexpressing cells) is “significantly less reduced”. Also, the “protein synthesis levels after exposure” value in experiment [3] (vector control cells) is on record as “significant decrease”. Also, in experiment [4], the “induction of increased levels of phosphorylated eIF2α” value is “particularly effective” and the “levels of phosphorylated eIF2α” value is listed as “reduced levels”.
For the compound `C/C=C(/C)C(=O)O[C@H]1C(C)=C2[C@H]([C@@H]1OC(=O)CCCCCCC)[C@@](C)(OC(C)=O)C[C@H](OC(=O)CCC)[C@@]1(O)[C@H]2OC(=O)[C@@]1(C)O` [Tg, thapsigargin], in experiment [2], the “sensitivity … vs vector control” value was “significantly increased the sensitivity” and the “sensitivity … vs control cells” value is “decreased sensitivity”. In experiment [4], the “induction of increased levels of phosphorylated eIF2α” value is reported as “particularly effective” and the “levels of phosphorylated eIF2α” value was “reduced levels”. The “resistance of Ec-resistant sp2 cells (cell viability, selected vs unselected)” value in experiment [5] is on record as “relatively resistant”.
In the case of `COc1cc([C@@H]2c3cc4c(cc3[C@@H](O[C@@H]3O[C@@H]5CO[C@@H](C)O[C@H]5[C@H](O)[C@H]3O)[C@H]3COC(=O)[C@H]23)OCO4)cc(OC)c1O` [etoposide], in experiment [2], the “sensitivity … vs vector control” value is listed as “did not affect sensitivity” and the “sensitivity … vs control cells” value was “unchanged”.
With Tunicamycin, in experiment [2], the “sensitivity … vs vector control” value is given as “significantly increased the sensitivity” and the “sensitivity … vs control cells” value was “decreased sensitivity”. Besides, the “levels of phosphorylated eIF2α” value in experiment [4] is “reduced levels”. For the same compound, the “resistance of Ec-resistant sp2 cells (cell viability, selected vs unselected)” value in experiment [5] was “relatively resistant”.

The values above are taken from patent US8691529B2, “Increasing protein production by increasing ABC50 expression or activity” (University Health Network, priority 2009, dated 2014).
